Structures can show the parent of a compound that is named as a salt. *1 amine or outer side, *2 acyl side, *3 side chain or, on linkers, in order; H or OH if unused. Where a SMILES comes first, the peptide text is derived from it. [ ]: non-standard residue; d: D form. The star is where a group is joined. Sta = CC(C)C[C@H](N)[C@@H](O)CC(=O)O; Isovaleryl = CC(C)CC(=O)*; CO = O=C([*:1])[*:2]
B1: Gastricin: carboxyl proteinase, stomach (protein, UniProt P20142 60-388, looked up)
Gastricsin: SVTYEPMAYMDAAYFGEISIGTPPQNFLVLFDTGSSNLWVPSVYCQSQACTSHSRFNPSESSTYSTNGQTFSLQYGSGSLTGFFGYDTLTVQSIQVPNQEFGLSENEPGTNFVYAQFDGIMGLAYPALSVDEATTAMQGMVQEGALTSPVFSVYLSNQQGSSGGAVVFGGVDSSLYTGQIYWAPVTQELYWQIGIEEFLIGGQASGWCSEGCQAIVDTGTSLLTVPQQYMSALLQATGAQEDEYGQFLVNCNSIQNLPSLTFIINGVEFPLPPSSYILSNNGYCTVGVEPTYLSSQNGQPLWILGDVFLRSYYSVYDLGNNRVGFATAA

Experiments:
PIII [1] = assay: Heavy metal effect on proteolytic activity of PIII; assay type: biochemical, surf clam, Spisula solidissima; conditions: for PIII % Retention / PIII Activity (HU/ml): metal ions 0.5 mM, pH 2.8; for PIII Activity (HU/ml): control 258.7; for effect of metal ion on PIII: general assay procedure
Procedure: (§1) The effect of heavy metals on proteolytic activity was determined by preincubating a mixture of 5 mM heavy metal stock solution (0.3 ml), 0.2M citrate-phosphate buffer at pH 2.8 (1.6 ml) and enzyme solution (0.1 ml) at room temperature for 10 min before the addition of substrate. All stock solutions of metals were made from chloride salts, except that silver was prepared from the nitrate salt.

PI & II [2] = assay: Heavy metal effect on proteolytic activity of PI & II; assay type: biochemical, surf clam, Spisula solidissima; conditions: for PI & II % Retention / PI & II Activity (HU/ml): metal ions 0.5 mM, pH 2.8; for PI & II Activity (HU/ml): control 214.7
Procedure: as §1

PI & II [3] = assay: Inhibitor effect on proteolytic activity of PI & II; assay type: biochemical, surf clam, Spisula solidissima
Procedure: All inhibitors were from Sigma Co. (St. Louis, MO). The stock solutions were prepared by dissolving the inhibitors either in water or dimethyl sulfoxide (DMSO) as following:
(§2) Water--Leupeptin hemisulfate (60 ug/ml), Antipain (60 ug/ml), Poly-L-lysine(60 mg/ml), soybean trypsin inhibitor (60 mg/ml), ovomucoid trypsin inhibitor (60 mg/mL), Tosyl-lysine chloromethyl ketone (TLCK, 60 mM) and iodoacetamide (60 mM).
(§3) DMSO--Pepstatin (60 ug/ml), Tosyl-phenylalanine chloromethyl ketone (TPCK, 60 mM), Phenylmethanesulphonylfluoride (PMSF, 60 mM), and Diazoacetylnorleucine methyl ester (DNME, 60 mM).

PIII [4] = assay: Inhibitor effect on proteolytic activity of PIII; assay type: biochemical, surf clam, Spisula solidissima
Procedure: The effect of inhibitors on proteolytic activity was determined by preincubating a mixture of inhibitor stock solution (0.05 ml), 0.2M citrate-phosphate buffer at pH 2.8 (1.7 ml) and enzyme solution (0.25 ml) for 10 min at room temperature before the addition of substrate. All inhibitors were from Sigma Co. (St. Louis, MO). The stock solutions were prepared by dissolving the inhibitors either in water or dimethyl sulfoxide (DMSO) as following:
as §2, §3

P2.2 enzyme = assay: Stabilization of P2.2 activity with reducing and chelating agents; conditions: EDTA or cysteine alone
[5] = cited from earlier work; for Optimum pH: Table 7, literature
Hemoglobin [6] = assay: Relative ratio of clotting to proteolytic activity, hemoglobin; assay type: biochemical; conditions: 30° C., optimum pH of each enzyme (in parentheses), calf rennet = 1.00
Procedure: (§4) The clotting activity of milk coagulants was determined according to the method of Berridge, with modifications (1952, The Analyst, 77: 57). To 0.05 ml (unless otherwise mentioned) of milk coagulant placed in a 25-ml test tube was added 10 ml of tempered substrate solution. The substrate solution was 10% reconstituted skim milk powder containing 10 mM CaCl2. The pH of this substrate solution was approximately 6.2. Where indicated, the pH of the substrate solution was adjusted with 0.5 N NaOH or HCl while agitating. The mixture of coagulant and substrate was then incubated at 30° C. water bath unless specifically indicated. Near the expected clotting time, which was determined by a preliminary test, the test tube was tilted ~60° at an interval of 5 seconds. The moment of the first flake appearance of the liquid flowing down the tube was recorded as milk clotting time.
(§5) Milk coagulants were assayed for proteolytic activity according to the method described in Example 1.
(§6) The ratio of milk clotting activity to proteolytic activity against hemoglobin is often used to assess the suitability of enzymes as rennet substitute (Green, 1972, supra). Clam rennet had considerably lower ratio of clotting to […] activity at optimum pH of each individual enzyme. […]

Hemoglobin [7] = conditions: pH 2.0, 37° C., Sigma lot; cited from earlier work
[8] = Milk clotting time determination; assay type: biochemical
Procedure: as §4

casein = assay: Relative ratio of clotting to proteolytic activity, casein; assay type: biochemical; conditions: 30° C., pH 6.2 of milk clotting assay, calf rennet = 1.00
Procedure: as §4, §5, §6

[9] = 1 ug/ml, pH 2.8, 10 min preincubation

Molecule	PIII % Retention (PIII [1])	PIII Activity (HU/ml) (PIII [1])	PI & II % Retention (PI & II [2])	PI & II Activity (HU/ml) (PI & II [2])	Optimum pH [5]	further results
[Ag+] [Ag+]	95.0%	245.8 HU/ml	102.2%	219.3 HU/ml	–	–
CC(C)[C@H](NC(=O)[C@H](CCCNC(=N)N)NC(=O)N[C@@H](Cc1ccccc1)C(=O)O)C(=O)N[C@H](C=O)CCCNC(=N)N [Antipain di-HCl] ({Phe-CO}-Arg-Val-Arg-aldehyde)	–	–	–	–	–	% Residual activity PI & II, final conc. 1 ug/ml (PI & II [3]; [9]): 102.9%; % Residual activity PIII, final conc. 1 ug/ml (PIII [4]; [9]): 89.7%
[Ca+2] [Ca++]	99.2%	256.7 HU/ml	97.5%	209.4 HU/ml	–	–
[Cd+2] [Cd++]	96.4%	249.4 HU/ml	96.3%	206.7 HU/ml	–	–
[Co+2] [Co++]	90.7%	234.7 HU/ml	96.9%	208.0 HU/ml	–	–
[Cu+2] [Cu++]	18.0%	46.7 HU/ml	95.7%	205.4 HU/ml	–	effect of cupric ion on PIII at 1 mM (PIII [1]; 1 mM cupric ion): Almost total inactivation; effect of metal ion on PIII (PIII [1]): very sensitive; effect of cupric ion on PI&II at or below 1 mM (PI & II [2]; at or below 1 mM cupric ion): not sensitive
Cl.N[C@@H](CS)C(=O)O [Cysteine-HCl]	–	–	–	–	–	optimum concentration for stabilizing P2.2, reagent alone (P2.2 enzyme): 2.5 mM
CCCC[C@H](NC(=O)C=[N+]=[N-])C(=O)OC [DNME, diazoacetylnorleucine methyl ester]	–	–	–	–	–	% Residual activity PI & II, final conc. 1 mM (PI & II [3]; pH 2.8, 10 min preincubation): 100.0%; effect of DNME on PI&II in the presence of cupric ions (PI & II [3]; with cupric ions, up to 4 hours of preincubation): not sensitive; effect of inhibitor on PIII (PIII [4]): very sensitive; % Residual activity PIII, final conc. 1 mM (PIII [4]; pH 2.8, 10 min preincubation): 64.9%
[Hg+2] [Hg++]	0.0%	0.0 HU/ml	87.1%	187.0 HU/ml	–	effect of metal ion on PIII (PIII [1]): extremely sensitive
NC(=O)CI [Iodoacetamide]	–	–	–	–	–	% Residual activity PI & II, final conc. 1 mM (PI & II [3]; pH 2.8, 10 min preincubation): 98.9%; effect of inhibitor on PIII (PIII [4]): inhibited; % Residual activity PIII, final conc. 1 mM (PIII [4]; pH 2.8, 10 min preincubation): 78.3%
CC(=O)N[C@@H](CC(C)C)C(=O)N[C@@H](CC(C)C)C(=O)N[C@H](C=O)CCCNC(=N)N [Leupeptin hemisulfate]	–	–	–	–	–	% Residual activity PI & II, final conc. 1 ug/ml (PI & II [3]; [9]): 96.5%; effect of inhibitor on PIII (PIII [4]): inhibited; % Residual activity PIII, final conc. 1 ug/ml (PIII [4]; [9]): 33.4%
[Mg+2] [Mg++]	98.2%	254.0 HU/ml	98.5%	211.4 HU/ml	–	–
O=C(O)CN(CCN(CC(=O)O)CC(=O)O)CC(=O)O [Na2 --EDTA]	–	–	–	–	–	optimum concentration for stabilizing P2.2, reagent alone (P2.2 enzyme): 10 mM
[Ni+2] [Ni++]	92.5%	239.4 HU/ml	96.0%	206.0 HU/ml	–	–
O=S(=O)(F)Cc1ccccc1 [PMSF, phenylmethanesulphonylfluoride]	–	–	–	–	–	% Residual activity PI & II, final conc. 1 mM (PI & II [3]; pH 2.8, 10 min preincubation): 102.2%; effect of inhibitor on PIII (PIII [4]): inhibited; % Residual activity PIII, final conc. 1 mM (PIII [4]; pH 2.8, 10 min preincubation): 53.5%
[Pb+2] [Pb++]	96.9%	250.7 HU/ml	99.7%	214.0 HU/ml	–	effect of metal ion on PIII (PIII [1]): didn't inhibit; PIII activity detected, addition order of buffer and inhibitor solution reversed (PIII [1]; reversed addition order): 20.7%
CC(C)CC(=O)N[C@H](C(=O)N[C@H](C(=O)N[C@@H](CC(C)C)[C@@H](O)CC(=O)N[C@@H](C)C(=O)N[C@@H](CC(C)C)[C@@H](O)CC(=O)O)C(C)C)C(C)C [Pepstatin] (Isovaleryl-VV[Sta]A[Sta]-OH)	–	–	–	–	–	effect of inhibitor on PI&II (PI & II [3]): strongly inhibited; % Residual activity PI & II, final conc. 1 ug/ml (PI & II [3]; [9]): 25.0%; % Residual activity PIII, final conc. 1 ug/ml (PIII [4]; [9]): 99.4%

Molecule	PIII % Retention (PIII [1])	PIII Activity (HU/ml) (PIII [1])	PI & II % Retention (PI & II [2])	PI & II Activity (HU/ml) (PI & II [2])	Optimum pH [5]	further results
[Sn+2] [Sn++]	83.7%	216.5 HU/ml	88.8%	190.6 HU/ml	–	effect of metal ion on PIII (PIII [1]): inhibits PIII slightly
Cc1ccc(S(=O)(=O)NC(CCCCN)C(=O)CCl)cc1 (stereo not drawn) [TLCK, tosyllysine chloromethyl ketone]	–	–	–	–	–	% Residual activity PI & II, final conc. 1 mM (PI & II [3]; pH 2.8, 10 min preincubation): 96.2%; effect of inhibitor on PIII (PIII [4]): inhibited; % Residual activity PIII, final conc. 1 mM (PIII [4]; pH 2.8, 10 min preincubation): 16.8%
Cc1ccc(S(=O)(=O)NC(Cc2ccccc2)C(=O)CCl)cc1 (stereo not drawn) [TPCK, tosylphenylalanine chloromethyl ketone]	–	–	–	–	–	% Residual activity PI & II, final conc. 1 mM (PI & II [3]; pH 2.8, 10 min preincubation): 96.4%; effect of inhibitor on PIII (PIII [4]): inhibited; % Residual activity PIII, final conc. 1 mM (PIII [4]; pH 2.8, 10 min preincubation): 21.2%
[Zn+2] [Zn++]	103.1%	266.7 HU/ml	90.4%	194.0 HU/ml	–	–
Cathepsin D: mammalian carboxyl proteinase, literature comparator	–	–	–	–	2.8-5.0	Activators, mammalian cathepsins ([5]; Table 11, literature): none; Temperature optima, mammalian cathepsins ([5]; Table 11, literature): 45 °C; pH optima hemoglobin, mammalian cathepsins ([5]; Table 11, literature): 2.8-3.5; pH stability, mammalian cathepsins ([5]; unstable at pH > 7, literature): unstable
Cathepsin G	–	–	–	–	~ 7.5	–
Chymotrypsin	–	–	–	–	~ 8.0	–
Elastase	–	–	–	–	8.2-8.5	–
Kallikrein	–	–	–	–	8.6-8.8	–
Pepsin	–	–	–	–	1.7-2.0	General proteolysis ([5]; Table 7, graded + to +++, literature): ++ +
Poly-L-lysine	–	–	–	–	–	% Residual activity PI & II, final conc. 1 ug/ml (PI & II [3]; pH 2.8): 99.3%; % Residual activity PIII, final conc. 1 ug/ml (PIII [4]; pH 2.8): 101.1%
Porcine pepsin: two-time crystallized and lyophilized powder of porcine pepsin (Sigma Co.)	–	–	–	–	–	relative ratio of clotting to proteolytic activity, Hemoglobin (Hemoglobin [6]): 0.30; specification of the pepsin lot (Hemoglobin [7]): 2900 units/mg solid; Linear regression X-Intercept (Table 17) ([8]; 1/tc vs C, equation 3-3): 0.0019; Linear regression Y-Intercept (Table 17) ([8]; 1/tc vs C, equation 3-3): -0.00013; Linear regression Slope (Table 17) ([8]; 1/tc vs C, equation 3-3, FIG. 7): 0.06597; Linear regression Slope (Table 16) ([8]; clotting time tc vs 1/C, equation 3-2): 16.5; milk clotting at pH 6.8 or above ([8]; milk pH 6.8 or above): unable to clot milk; Linear regression X-Intercept (Table 16) ([8]; tc vs 1/C, equation 3-2): 1.9; Linear regression Y-Intercept (Table 16) ([8]; tc vs 1/C, equation 3-2): -8.7; relative ratio of clotting to proteolytic activity, Casein (casein): 0.24
Renin	–	–	–	–	5.5-8.0	–
Trypsin	–	–	–	–	~ 8.0	–
Urokinase	–	–	–	–	7.5-7.6	–
cathepsin L: thiol proteinase, liver	–	–	–	–	5.0-5.5	–
B1	–	–	–	–	3.0	–
